Measurements published in article PMC5998080, “Structural and functional analysis of mRNA export regulation by the nuclear pore complex” (Nature Communications, 2018).

Key:
[1] = target: T1, S. cerevisiae Gle1^CTD•Nup42^GBM (Saccharomyces cerevisiae, UniProt Q12315); assay: isothermal titration calorimetry; format: binding
T1 construct: E. coli; His6 tag cleaved with PreScission; with Nucleoporin NUP42
T1 sequence (Q12315 243-538): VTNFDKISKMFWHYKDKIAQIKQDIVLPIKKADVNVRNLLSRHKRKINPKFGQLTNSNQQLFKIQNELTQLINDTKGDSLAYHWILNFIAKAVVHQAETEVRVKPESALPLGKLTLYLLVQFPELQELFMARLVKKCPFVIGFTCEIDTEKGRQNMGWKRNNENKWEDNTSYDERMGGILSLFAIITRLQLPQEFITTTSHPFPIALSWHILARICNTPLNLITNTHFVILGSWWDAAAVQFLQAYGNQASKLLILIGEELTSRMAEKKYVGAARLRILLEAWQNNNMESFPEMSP
T1 sequence (P49686 397-430 partner): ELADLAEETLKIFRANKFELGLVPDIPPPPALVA

[2] = target: T2, S. cerevisiae Gle1^CTD•Nup42^GBM•Dbp5 (Saccharomyces cerevisiae, UniProt P20449+Q12315); assay: size exclusion chromatography, complex formation; format: binding; conditions: 0.5 mM IP6, 20 mM Tris pH 8.0, 100 mM NaCl, 5 mM DTT; IP6 bridges Gle1 and Dbp5
T2 construct: with Nucleoporin NUP42
T2 sequence (Q12315 243-538): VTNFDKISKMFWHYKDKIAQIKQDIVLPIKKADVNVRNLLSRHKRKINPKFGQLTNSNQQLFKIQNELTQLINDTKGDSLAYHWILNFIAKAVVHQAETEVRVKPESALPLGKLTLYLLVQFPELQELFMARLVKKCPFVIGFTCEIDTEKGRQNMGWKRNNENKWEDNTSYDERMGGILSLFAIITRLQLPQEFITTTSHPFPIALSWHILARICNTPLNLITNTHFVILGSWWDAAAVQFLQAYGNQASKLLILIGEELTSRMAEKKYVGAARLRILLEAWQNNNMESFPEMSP
T2 sequence (P20449 1-482): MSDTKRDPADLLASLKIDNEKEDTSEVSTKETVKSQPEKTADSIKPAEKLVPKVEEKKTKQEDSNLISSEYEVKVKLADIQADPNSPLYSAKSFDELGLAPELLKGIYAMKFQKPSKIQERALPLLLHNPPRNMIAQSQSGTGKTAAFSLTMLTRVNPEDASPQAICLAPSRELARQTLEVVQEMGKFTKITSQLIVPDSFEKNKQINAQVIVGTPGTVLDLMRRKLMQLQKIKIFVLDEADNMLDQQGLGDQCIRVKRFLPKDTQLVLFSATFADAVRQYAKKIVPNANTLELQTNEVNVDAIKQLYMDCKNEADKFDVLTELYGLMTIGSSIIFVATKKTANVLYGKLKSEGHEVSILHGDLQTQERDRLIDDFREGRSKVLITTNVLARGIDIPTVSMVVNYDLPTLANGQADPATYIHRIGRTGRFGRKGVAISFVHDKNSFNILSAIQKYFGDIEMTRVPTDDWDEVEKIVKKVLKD
T2 sequence (P49686 397-430 partner): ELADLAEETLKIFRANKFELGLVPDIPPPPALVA

S. cerevisiae Gle1^CTD = target: T3, S. cerevisiae Gle1^CTD (Saccharomyces cerevisiae, UniProt Q12315); assay: differential scanning fluorimetry; format: binding; conditions: Tm without to with IP6 (25 µM); no Nup42; 20 mM Tris pH 8.0, 100 mM NaCl, 5 mM DTT
T3 construct: C-terminal domain alone (borders in supplement); His6-scGle1CTD from E. coli, tag cleaved
T3 sequence (Q12315 243-538): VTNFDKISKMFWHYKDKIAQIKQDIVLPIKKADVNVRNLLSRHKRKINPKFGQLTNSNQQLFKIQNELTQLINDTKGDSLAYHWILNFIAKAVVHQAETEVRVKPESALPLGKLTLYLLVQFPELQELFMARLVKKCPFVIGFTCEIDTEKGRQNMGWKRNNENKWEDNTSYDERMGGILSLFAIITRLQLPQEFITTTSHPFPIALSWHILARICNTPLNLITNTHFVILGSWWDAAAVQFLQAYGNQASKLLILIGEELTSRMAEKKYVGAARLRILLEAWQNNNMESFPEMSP

[3] = target: T4, C. thermophilum Gle1^CTD•Nup42^GBM (Thermochaetoides thermophila, UniProt G0S7F3); assay: X-ray crystal structure ([…] Å); format: binding; conditions: pH 6.3 MES, zinc sulfate; pocket on Gle1
T4 construct: E. coli; tags cleaved; with Nucleoporin NUP42

[4] = target: T5, Nup155 C-terminal domain (Nup155^CTD, residues 870–1391) (human, UniProt O75694 870-1391); assay: SEC; Superdex 200 10/300 GL; 20 mM TRIS (pH 8.0), 100 mM NaCl, 5 mM DTT; proteins mixed and incubated 30 min on ice, twofold molar excess of the smaller component; fractions on Coomassie-stained SDS-PAGE; conditions: both partners purified
T5 construct: human Nup155, C-terminal domain, residues 870-1391; also called His6-Nup155^CTD; source: E. coli BL21-CodonPlus(DE3)-RIL, purified (Ni-NTA, HiTrap Q, Superdex 200); not shown: His6, N-terminal, cleaved
T5 sequence (looked up): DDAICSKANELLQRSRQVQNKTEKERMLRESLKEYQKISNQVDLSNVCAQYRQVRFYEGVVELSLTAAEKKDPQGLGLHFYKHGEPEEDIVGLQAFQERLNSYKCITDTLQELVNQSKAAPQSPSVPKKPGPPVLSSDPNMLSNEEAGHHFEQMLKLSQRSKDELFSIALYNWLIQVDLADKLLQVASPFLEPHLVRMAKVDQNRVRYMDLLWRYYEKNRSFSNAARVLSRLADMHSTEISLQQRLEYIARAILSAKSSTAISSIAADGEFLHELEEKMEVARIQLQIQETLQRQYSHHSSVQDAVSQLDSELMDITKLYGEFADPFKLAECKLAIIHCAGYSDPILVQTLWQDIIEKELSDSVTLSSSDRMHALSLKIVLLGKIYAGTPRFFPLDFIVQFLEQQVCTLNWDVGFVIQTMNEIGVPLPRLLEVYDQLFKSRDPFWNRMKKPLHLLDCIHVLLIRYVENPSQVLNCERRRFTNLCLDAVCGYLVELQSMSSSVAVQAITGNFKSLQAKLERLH

GST-Nup155^CTD = target: T6, GST-Nup155^CTD (human, UniProt O75694 870-1391); assay: pull-down; GST-Nup155^CTD (20 μM) preincubated with a twofold molar ratio of Nup98^ΔFG or SUMO-Gle1^N, then with 0-8-fold molar ratios of the other protein; Glutathione Sepharose beads; 20 mM TRIS (pH 8.0), 100 mM NaCl, 5 mM DTT; conditions: both partners purified
T6 construct: human Nup155, C-terminal domain, residues 870-1391; Limits are those printed for Nup155^CTD; source: E. coli BL21-CodonPlus(DE3)-RIL, purified (Glutathione Sepharose, HiTrap Q, Superdex 200); not shown: GST, N-terminal, kept
T6 sequence (looked up): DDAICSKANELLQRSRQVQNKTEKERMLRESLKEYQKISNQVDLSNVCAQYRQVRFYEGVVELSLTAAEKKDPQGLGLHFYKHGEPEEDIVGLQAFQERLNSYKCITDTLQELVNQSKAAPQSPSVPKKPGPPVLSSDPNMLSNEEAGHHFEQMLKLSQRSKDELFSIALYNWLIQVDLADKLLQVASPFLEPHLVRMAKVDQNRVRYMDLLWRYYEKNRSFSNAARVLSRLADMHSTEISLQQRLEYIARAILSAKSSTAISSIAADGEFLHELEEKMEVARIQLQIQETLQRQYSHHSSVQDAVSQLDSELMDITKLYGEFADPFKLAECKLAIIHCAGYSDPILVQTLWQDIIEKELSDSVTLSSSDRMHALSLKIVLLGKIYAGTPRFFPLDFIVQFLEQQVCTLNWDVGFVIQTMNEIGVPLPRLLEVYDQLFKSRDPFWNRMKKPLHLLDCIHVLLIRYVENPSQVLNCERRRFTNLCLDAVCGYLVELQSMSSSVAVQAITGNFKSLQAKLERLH

H. sapiens DDX19 = target: T7, H. sapiens DDX19 (human, UniProt Q9UMR2 1-479); assay: SEC; human DDX19 with Gle1^CTD•Nup42^GBM, without and with 0.5 mM IP6 (IP6 partially reduced complex formation); 20 mM TRIS (pH 8.0), 100 mM NaCl, 5 mM DTT; conditions: both partners purified
T7 construct: human DEAD-box helicase DDX19 (the printed residue numbers run to 479); also called hsDDX19; wild-type DDX19; source: E. coli BL21-CodonPlus(DE3)-RIL, purified (Ni-NTA, HiTrap Q, Superdex 200); not shown: His6, N-terminal, cleaved
T7 sequence (looked up): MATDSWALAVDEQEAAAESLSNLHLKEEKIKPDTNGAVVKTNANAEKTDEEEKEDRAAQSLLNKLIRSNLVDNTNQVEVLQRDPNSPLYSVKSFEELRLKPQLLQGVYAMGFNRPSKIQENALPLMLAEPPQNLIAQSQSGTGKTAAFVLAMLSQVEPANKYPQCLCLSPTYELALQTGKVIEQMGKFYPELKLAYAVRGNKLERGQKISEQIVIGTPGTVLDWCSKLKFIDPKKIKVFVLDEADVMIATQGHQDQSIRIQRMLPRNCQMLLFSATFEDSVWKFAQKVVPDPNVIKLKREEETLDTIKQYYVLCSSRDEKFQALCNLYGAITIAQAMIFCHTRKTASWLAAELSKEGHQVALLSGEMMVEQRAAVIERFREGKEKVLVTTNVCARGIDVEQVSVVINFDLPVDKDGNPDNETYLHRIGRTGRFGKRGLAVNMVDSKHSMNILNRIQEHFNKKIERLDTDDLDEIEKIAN

[5] = target: T8, H. sapiens DDX19^∆N53 (residues 54–479) (human, UniProt Q9UMR2 54-479); assay: crystal structure; H. sapiens Gle1^CTD•Nup42^GBM•DDX19^∆N53, reconstituted from equimolar purified Gle1^CTD•Nup42^GBM and DDX19^∆N53; with ADP 3.6 Å or AMP-PNP•Mg^2+ 3.4 Å; conditions: both partners purified
T8 construct: human DEAD-box helicase DDX19 without the flexible N-terminal extension, residues 54-479; source: E. coli BL21-CodonPlus(DE3)-RIL, purified (Ni-NTA, HiTrap Q, Superdex 200); not shown: His6, N-terminal, cleaved
T8 sequence (looked up): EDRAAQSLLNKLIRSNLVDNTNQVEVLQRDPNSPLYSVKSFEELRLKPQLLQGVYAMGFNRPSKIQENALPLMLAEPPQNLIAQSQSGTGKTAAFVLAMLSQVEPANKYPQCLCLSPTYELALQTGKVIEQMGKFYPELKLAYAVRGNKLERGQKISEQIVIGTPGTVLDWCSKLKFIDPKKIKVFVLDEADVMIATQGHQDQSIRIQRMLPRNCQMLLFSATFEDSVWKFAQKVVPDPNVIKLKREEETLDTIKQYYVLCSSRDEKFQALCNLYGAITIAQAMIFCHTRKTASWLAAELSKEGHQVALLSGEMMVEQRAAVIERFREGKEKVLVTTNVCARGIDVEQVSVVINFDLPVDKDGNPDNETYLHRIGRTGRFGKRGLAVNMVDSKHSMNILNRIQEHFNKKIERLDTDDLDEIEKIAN

T4 sequence (G0S381 441-557): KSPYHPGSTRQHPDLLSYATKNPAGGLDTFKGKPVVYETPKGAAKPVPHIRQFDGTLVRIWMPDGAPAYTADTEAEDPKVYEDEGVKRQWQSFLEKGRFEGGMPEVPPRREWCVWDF
T4 sequence (G0S7F3 216-529): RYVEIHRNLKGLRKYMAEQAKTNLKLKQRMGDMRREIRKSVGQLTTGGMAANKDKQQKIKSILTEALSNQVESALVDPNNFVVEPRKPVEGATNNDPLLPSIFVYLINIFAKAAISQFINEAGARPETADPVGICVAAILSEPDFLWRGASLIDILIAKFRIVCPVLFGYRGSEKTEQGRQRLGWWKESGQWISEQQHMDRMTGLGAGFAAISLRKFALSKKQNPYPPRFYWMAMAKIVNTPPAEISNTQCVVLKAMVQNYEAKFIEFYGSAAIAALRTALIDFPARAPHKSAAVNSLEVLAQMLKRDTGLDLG

O=P(O)(O)O[C@H]1[C@H](OP(=O)(O)O)[C@@H](OP(=O)(O)O)[C@H](OP(=O)(O)O)[C@@H](OP(=O)(O)O)[C@H]1OP(=O)(O)O [IP6] was tested, and the Kd [1] was ~3 nM, the “size exclusion chromatography, complex formation” value [2] was “Dbp5 and Gle1^CTD•Nup42^GBM only formed a complex in the presence of IP6” and the Tm (S. cerevisiae Gle1^CTD) was 22 to 37 °C. For the same molecule, the “X-ray crystal structure (2.17 Å)” value [3] was “IP6 binds to C. thermophilum Gle1^CTD and to S. cerevisiae Gle1^CTD in a similar orientation”.

B1: SUMO-Gle1^N (SUMO fusion of human Gle1 residues 2–33) (domain or fragment, UniProt Q53GS7 2-33, looked up)
chain: PSEGRCWETLKALRSSDKGRLCYYRDWLLRRE
notes: human Gle1 (splice variant Gle1B), N-terminal residues 2-33; No cleavage of the His6-SUMO tag is described for this construct; also called His6-SUMO-hsGle1^N; source: E. coli BL21-CodonPlus(DE3)-RIL, purified (Ni-NTA, HiTrap Q, Superdex 200); not shown: SUMO, N-terminal, kept
B1: binds [4]; binds (GST-Nup155^CTD).

B2: H. sapiens Gle1^CTD•Nup42^GBM complex (complex, human)
chain 1: VQDITMQWYQQLQDASMQCVLTFEGLTNSKDSQAKKIKMDLQKAATIPVSQISTIAGSKLKEIFDKIHSLLSGKPVQSGGRSVSVTLNPQGLDFVQYKLAEKFVKQGEEEVASHHEAAFPIAVVASGIWELHPRVGDLILAHLHKKCPYSVPFYPTFKEGMALEDYQRMLGYQVKDSKVEQQDNFLKRMSGMIRLYAAIIQLRWPYGNRQEIHPHGLNHGWRWLAQILNMEPLSDVTATLLFDFLEVCGNALMKQYQVQFWKMLILIKEDYFPRIEAITSSGQMGSFIRLKQFLEKCLQHKDIPVPKGFLTSSFWRS
chain 2: IIATDNVLFTPRDKLTVEELEQFQSKKFTLGKIPLKPPPLELLNV
notes: human Gle1 (splice variant Gle1B), C-terminal domain, residues 382-698; Chains as m16 and m17; also called hsGle1^CTD•His6-hsNup42^GBM; source: E. coli BL21-CodonPlus(DE3)-RIL, co-expressed, purified (Ni-NTA, heparin, Superdex 75); not shown: His6, N-terminal, cleaved
B2: binds (H. sapiens DDX19); binds [5].
